Results as given in patent publication US20110014185A1, “METHODS INVOLVING GRAF POLYPEPTIDES” (priority 2008, published 2011).
Entries after “also recorded” stand apart in the source; their conditions may differ.

What was measured:
HeLa cells [1] = assay: GRAF1 localisation by immunofluorescent staining; type: cell-based, human; settings: for colocalisation of GRAF1 with focal complex markers / number of GRAF1-positive tubules: 40 uM Y-27632 for 40 minutes
Description: FIG. 8 GRAF1 mediated trafficking is dependent upon dynamin and small G-proteins. a, HeLa cells incubated either with medium including vehicle (DMSO) or 50 um dynasore for 15 minutes before addition of dextran to these, cells for a further 15 minutes, (with DMSO/dynasore concentrations being retained throughout), before fixation and staining for GRAF1, dextran and paxillin. […] Note the absence of GRAF1-positive tubules in transfected cells. Scale bars=10 um. […] Note that endogenous GRAF1 tubes originate from within rings of beta1-integrins (a). […] Protein expression and purification Antibodies and constructs used are described in supplemental methods. Recombinant proteins were expressed in a BL21 (DE3) pLysS E-coli strain as Glutathione Stransferase (GST)-fusion proteins and purified using glutathione-Sepharose 4B beads (Amersham Biosciences) and gel filtration on a sephacryl S-200 column (Amersham) as previously described27. For analysis of endogenous protein expression, cell lines were grown according to instructions from American Tissue Culture Collection, harvested and lysed in 1% NP-40 in PBS supplemented with protease inhibitors. After a 20,000 g centrifugation the supernatant was analysed by SDS-PAGE and immunoblotting. Protein and lipid interaction assays Liposomes from total brain lipids (FOLCH fraction I) (Sigma Aldrich), from synthetic lipids (Avanti Polar Lipids), and liposomes of a specified diameter were generated as previously described10. Liposome binding assays for lipid specificity and curvature sensitivity was performed as previously described10. Briefly, proteins were incubated together with liposomes followed by centrifugation and analysis of the pellet and supernatant by SDS-PAGE and Coomassie staining. For immunoprecipitation experiments, rat brain cytosol was generated by homogenisation of rat brains in buffer (25 mM HEPES, 150 mM NaCl, 1 mM DTT, 0.1% Triton X-100 and protease inhibitors), before centrifugation at 50,000 rpm for 30 mins at 4i ? C. The supernatant was removed and added to protein A Sephorose 4B beads (Amersham Biosciensis) to which antibodies had been previously bound and incubated at 4° C. for 3 hrs. Beads were washed three times in buffer (25 mM HEPES, 150 mM NaCl) supplemented with 1% NP-40, and once in buffer without NP-40 before analysis by SDS-PAGE combined with immunoblotting or Coomassie staining. Pull-down experiments against rat brain cytosol using purified proteins and identification by mass-spectrometry were performed as previously described27. In vitro liposome tubulation assays were performed and analysed as previously described 10. Cell culture and transfections HeLa cells were grown in RPM1 1640 media (GIBCO) supplemented with L-Glutamine and 10% fetal bovine serum and transfected using Genejuice (Novagen) for transient protein expression. For primary cultures, rat hippocampal neurons/astrocytes were prepared by trypsin digestion and mechanical trituration from E18 or P1 Sprague-Dawley rats and plated onto poly L-lysine coated coverslips. Cells were cultured in B27-supplemented Neurobasal media. For GRAF1 depletion, HeLa cells were transfected with stealth siRNAs specific against human GRAF1 (Invitrogen) using Lipofectamine 2000 (Invitrogen) according to manufacturers instructions. Cells were cultured for an additional 48 hrs for efficient silencing of the GRAF1 expression. Stealth Block-it siRNA (Invitrogen) was used as a control. AP2 siRNA was used as previously described28. […]

[2] = test system: GRAF1 BAR+PH overexpressing cells; assay: localisation of overexpressed GFP-tagged GRAF1 BAR+PH protein, confocal microscopy; type: cell-based; settings: 1 uM nocodazole for 1 hr
Text: FIG. 9 Membrane tubules generated by the GRAF1 BAR+PH domain in vivo are mobile structures dependent upon microtubules. a, Representative Coomassie-stained gel of a typical liposome co-sedimentation assay with GST-tagged BAR+PH and liposomes of different diameters quantified in FIG. 2a (P=pellet, S=supernatant). b, Confocal micrographs showing the tubular localisation of overexpressed myc-tagged BAR+PH protein in HeLa cells and the cytoplasmic localisation of a similarly overexpressed protein with a BAR domain mutation (KK131/132EE). Scale bars=10 um. c, Electron micrographs of negatively-stained liposomes incubated in the presence or absence of GST-tagged GRAF1 BAR+PH protein. Note the presence of tubular structures present with BAR+PH protein and their absence in the control incubation. Scale bars=200 nm. d, Confocal micrographs of cells overexpressing GFP-tagged GRAF1 BAR+PH protein left untreated (Panel 1) or treated with 1 uM nocodazole for 1 hr and fixed immediately (Panel 2) or left to recover for 30 mins after nocodazole washout (Panel 3). Cells were then stained for beta-tubulin (lower images). GRAF1 BAR+PH-positive tubular structures were not present in nocodazole treated cells but recovered after nocodazole washout where they are observed to colocalise with beta-tubulin. e, Live cell spinning disc confocal imaging of a GFP-tagged GRAF1 BAR+PHover expressing cell at 20° C. […]

HeLa cells [3] = assay: tubular dextran uptake by immunofluorescence; type: cell-based, human; settings: 50 um dynasore 15 minutes before dextran, further 15 minutes
Description: FIG. 8 GRAF1 mediated trafficking is dependent upon dynamin and small G-proteins. a, HeLa cells incubated either with medium including vehicle (DMSO) or 50 um dynasore for 15 minutes before addition of dextran to these, cells for a further 15 minutes, (with DMSO/dynasore concentrations being retained throughout), before fixation and staining for GRAF1, dextran and paxillin. […] Note the absence of GRAF1-positive tubules in transfected cells. Scale bars=10 um.
Protein expression and purification Antibodies and constructs used are described in supplemental methods. Recombinant proteins were expressed in a BL21 (DE3) pLysS E-coli strain as Glutathione Stransferase (GST)-fusion proteins and purified using glutathione-Sepharose 4B beads (Amersham Biosciences) and gel filtration on a sephacryl S-200 column (Amersham) as previously described27. For analysis of endogenous protein expression, cell lines were grown according to instructions from American Tissue Culture Collection, harvested and lysed in 1% NP-40 in PBS supplemented with protease inhibitors. After a 20,000 g centrifugation the supernatant was analysed by SDS-PAGE and immunoblotting. […] In vitro liposome tubulation assays were performed and analysed as previously described 10. […]

[4] = acute ischaemic stroke; cited from earlier work

## C[C@@H](N)[C@H]1CC[C@H](C(=O)Nc2ccncc2)CC1 [Y-27632]
HeLa cells [1]
  colocalisation of GRAF1 with focal complex markers: vinculin is found mostly in focal complexes where it co-localises with GRAF1
  number of GRAF1-positive tubules: increases the number of GRAF1-positive tubules
HeLa cells [1]; listed as Rho kinase inhibitor
  colocalisation of GRAF1 with focal complex markers: increased the colocalisation of GRAF1 with 1-integrin, vinculin and dynamin
  number of GRAF1-positive tubules: dramatically increased the numbers of GRAF1-positive tubules

## COC(=O)Nc1nc2ccc(C(=O)c3cccs3)cc2[nH]1 [nocodazole]
[2]
  GRAF1 BAR+PH-positive tubular structures: not present; also recorded: abolishes the tubular localisation

## O=C(N/N=C/c1ccc(O)c(O)c1)c1cc2ccccc2cc1O [dynasore]
HeLa cells [3]
  tubular dextran uptake: loss of tubular endocytosis through the CLIC/GEEC pathway; also recorded: profound reduction in tubular dextran uptake; also recorded: profoundly reduced ability to endocytose dextran in tubular structures
HeLa cells [1]; 50 um dynasore
  GRAF1-positive tubular structures / GRAF1 distribution: redistribute from tubular endocytic membranes to basal complexes; also recorded: reduction in GRAF1-positive tubular structures; also recorded: redistributed in these cells from tubular structures to basal punctae and rings

## O=S(=O)(c1cccc2cnccc12)N1CCCNCC1 [fasudil]
[4]
  toxicity in clinical trials: non-toxic
